{"source": "patent US12679878B2", "about": "“CRF2 receptor agonists and their use in therapy” (SANOFI, priority 2020, dated 2026)", "molecular_target": "T1, endogenous human CRF2 (Homo sapiens, UniProt Q13324)", "T1 construct": "endogenous in cells; host or cells: NCI-H82", "T1 sequence (Q13324 1-411)": "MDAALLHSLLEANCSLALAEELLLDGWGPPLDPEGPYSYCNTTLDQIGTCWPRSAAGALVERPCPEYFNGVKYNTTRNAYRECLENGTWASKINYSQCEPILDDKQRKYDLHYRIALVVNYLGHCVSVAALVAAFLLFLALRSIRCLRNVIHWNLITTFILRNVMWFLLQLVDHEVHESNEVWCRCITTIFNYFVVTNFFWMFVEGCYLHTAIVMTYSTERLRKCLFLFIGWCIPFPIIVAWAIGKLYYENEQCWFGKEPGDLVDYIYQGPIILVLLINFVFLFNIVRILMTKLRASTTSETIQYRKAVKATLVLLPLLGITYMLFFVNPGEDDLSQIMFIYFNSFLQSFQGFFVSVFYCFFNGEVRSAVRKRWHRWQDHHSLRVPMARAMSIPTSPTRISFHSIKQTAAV", "assay": "cAMP agonist effect in NCI-H82 cells expressing endogenous human CRF2 (Example 10)", "format": "cell-based", "settings": "cAMP HTRF, 5 min activation", "procedure": "The agonist effect of the compounds was assessed in NCI-H82 cells expressing endogenous human CRF2.\nNCI-H82 cells in suspension were plated in low-volume 384-well plates at a density of 30000 cells/well in 5 μl of test medium (RPMI+1 mM IBMX). The plates were briefly centrifuged at 800 rpm to allow the cell suspension to move to the bottom of the wells and then incubated for 2 hours at 37° C. in 5% CO2. 5 μl of test compounds at appropriate concentrations (10-11 to 3×10-7) diluted in test medium were then transferred in 384 wells plates. After 5 min of activation, the reaction was stopped by addition of HTRF revelation reagents with a multidrop dispenser. The two reagents were 5 μl/well of Anti-CAMP-cryptate diluted 20-fold in conjugate and lysis buffer and 5 μl/well of cAMP-D2 diluted 20-fold in conjugate and lysis buffer. After one-hour incubation at room temperature in the dark, the plates were read on a Clariostar apparatus.", "note": "Starred links: 1 amine or outer side, 2 acyl side, 3 side chain; linkers in the order of their positions; H or OH if unused. Non-standard residues stand in square brackets, D forms with d. Residues, ends and D or L forms follow the SMILES beside them. Groups on a side chain read outwards from the residue. *: point of attachment. C18 diacid = O=C(O)CCCCCCCCCCCCCCCCC(=O)*; γGlu = O=C(O)[C@H](CCC(=O)[*:2])N[*:1]; AEEA = NCCOCCOCC(=O)O; Aib = CC(C)(N)C(=O)O", "data": [{"compound": "CC[C@H](C)[C@H](N)C(=O)N[C@H](C(=O)N[C@@H](CC(C)C)C(=O)N[C@@H](CO)C(=O)N[C@@H](CC(C)C)C(=O)N[C@@H](CC(=O)O)C(=O)N[C@@H](C(=O)N1CCC[C@H]1C(=O)N[C@H](C(=O)N[C@@H](CCCCN)C(=O)N[C@@H](CC(C)C)C(=O)N[C@@H](CCCCNC(=O)COCCOCCNC(=O)COCCOCCNC(=O)CC[C@H](NC(=O)CCCCCCCCCCCCCCCCC(=O)O)C(=O)O)C(=O)N[C@@H](CCC(N)=O)C(=O)N[C@H](C(=O)N[C@@H](CC(C)C)C(=O)N[C@@H](CC(C)C)C(=O)N[C@@H](CCCCN)C(=O)N[C@@H](CCC(N)=O)C(=O)N[C@@H](CCC(=O)O)C(=O)N[C@@H](CCCNC(=N)N)C(=O)N[C@@H](CCC(N)=O)C(=O)N[C@@H](CCCCN)C(=O)NC(C)(C)C(=O)N[C@@H](CCC(N)=O)C(=O)N[C@@H](CCCNC(=N)N)C(=O)N[C@@H](CCC(N)=O)C(=O)N[C@@H](CCC(N)=O)C(=O)N[C@@H](C)C(=O)N[C@@H](CCC(=O)O)C(=O)N[C@@H](CCCCN)C(=O)N[C@@H](CC(N)=O)C(=O)N[C@@H](CCCCN)C(=O)N[C@@H](CCC(N)=O)C(=O)N[C@H](C(=O)N[C@@H](CC(C)C)C(=O)N[C@@H](C)C(=O)N[C@@H](CCC(N)=O)C(=O)N[C@H](C(N)=O)C(C)C)[C@@H](C)CC)[C@@H](C)CC)[C@@H](C)CC)C(C)C)C(C)C", "note": "[compound 135] (H-IVLSLD[dV]PIKLK([AEEA-AEEA-γGlu-C18 diacid])QILLKQERQK[Aib]QRQQAEKNKQILAQV-NH2; N-terminus assumed)", "values": [{"measurement": "EC50", "result": 110, "unit": "nM"}]}]}
